# Values of other authors, collected in patent US5840712A, “Water soluble vitamin B12 receptor modulating agents and methods related thereto” (Receptagen Corporation, priority 1995, dated 1998).
# Target: avidin (Gallus gallus, UniProt P02701)
# Sequence (P02701 25-152): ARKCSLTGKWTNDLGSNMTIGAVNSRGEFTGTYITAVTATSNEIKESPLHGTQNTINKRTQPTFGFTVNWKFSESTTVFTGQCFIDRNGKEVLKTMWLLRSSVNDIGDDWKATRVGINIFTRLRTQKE
structure (smiles),measurement,value
O=C(O)CCCC[C@@H]1SC[C@@H]2NC(=O)N[C@@H]21 [biotin],specific binding affinity of biotin for avidin (Ka),10^15
